Experiments:
[1] = tested on: Wistar rats showing proteinuria; experiment: Effect of treatment on proteinuria (urinary protein by sulfosalicylic acid turbidimetry) in BSA-injected rats; type: in vivo, rat; conditions: BSA 350 mg/kg i.v., intragastric twice daily, yeast compositions 1.0 ml/100 g, pednisone 0.25 mg/100 g
Protocol: (§1) The activated yeast compositions used in the following examples were prepared as described above, using Saccharomyces cerevisiae Hansen AS2.502, cultured in the presence of an alternating electric field having the electric field frequency and field strength exemplified in the parentheses following the recommended ranges listed in Section IV, supra. Control (i.e., untreated) yeast compositions were those prepared in the same manner as described in Section VI, supra, except that the yeast cells were cultured in the absence of EMFs. Unless otherwise specified, all compositions of interest were administered to the animals by intragastric feeding.
To test the ability of the activated yeast compositions to reduce the level of urinary protein, sixty healthy Wistar rats with average weight of about 200-220 g (4-7 months old, half of them male and the other half female) were chosen and males and females were kept in separate cages. […] Urine samples were collected from the fine cancellated base of metabolic cages, and the amount of protein in the samples was determined by […]. […]
The amount of urinary protein was determined by sulfosalicylic acid turbidimetry. The volume of each urine sample was first measured (ml). […] Ten minutes later, the absorption of the sample test tube was measured at 620 nm against the control tube. […]

[2] = tested on: Wistar rats showing proteinuria; experiment: Effect of treatment on serum protein (biuret method) in BSA-injected rats; type: in vivo, rat; conditions: Wistar rats prepared as in Example 1; intragastric twice daily for six weeks; yeast compositions 1.0 ml/100 g, pednisone 0.2 mg/100 g
Protocol: as §1, with “feeding. […]” for “feeding.”
Subsequently, a composition of interest was administered twice daily to each of the four groups of rats for six weeks. […] The amount of protein in the supernatant (serum protein) was determined.
To determine the amount of serum protein, 50 μl of the supernatant and standard serum protein were added into two separate tubes. […] The mixtures were placed in water bath at 37° C. for 10 minutes and measured for absorption at 546 nm. The concentration of serum protein was calculated according to the following formula: [Serum Protein]=[absorption for the testing sample/absorption for the standard]×[standard serum protein](g/dl).

Q: `C[C@]12C=CC(=O)C=C1CC[C@@H]1[C@@H]2C(=O)C[C@@]2(C)[C@H]1CC[C@]2(O)C(=O)CO` [Pednisone, pednisone (metacortandiacin)] was tested. Which “Urinary Protein (mg in 100 ml urine sample) in a 24-hour Period, 8-Week Treatment” value ([1]; last day of eighth week) did it give?
A: The value was 4.22 ± 1.34 mg in 100 ml urine sample.

Q: And the “Urinary Protein (mg in 100 ml urine sample) in a 24-hour Period, 4-Week Treatment” value ([1]; last day of fourth week)?
A: Its value is 4.57 ± 1.42 mg in 100 ml urine sample.

Q: What about the “Serum Protein” value [2] of the same compound?
A: Its value is 6.41 ± 3.32 g/dL.

Reference: patent US20050106168A1, “Methods and compositions for treating nephrotic syndrome” (priority 2003, published 2005)
